Literature values in US20070218119A1, “STEROL ENRICHED MIXED LAMMELARITY AMPHOTERICIN INTERCALATING LIPOSOMES IN SALINE AND THE PROCESS FOR THEIR PREPARATION” (priority 2004, published 2007).

Settings: conventional Amphotericin B mixed with 0.9% Sodium Chloride (Martindale)

- precipitation in 0.9% Sodium Chloride: precipitation of Amphotericin B
Compound: C[C@@H]1[C@H](O)[C@@H](C)/C=C/C=C/C=C/C=C/C=C/C=C/C=C/[C@H](O[C@@H]2O[C@H](C)[C@@H](O)[C@H](N)[C@@H]2O)C[C@@H]2O[C@](O)(C[C@@H](O)C[C@@H](O)[C@H](O)CC[C@@H](O)C[C@@H](O)CC(=O)O[C@H]1C)C[C@H](O)[C@H]2C(=O)O [conventional Amphotericin B, Amphotericin B]
